{"source": "patent US20020034725A1", "about": "“SENSITIZATION OF CELLS TO RADIATION AND AND CHEMOTHERAPY” (priority 1996, published 2002)", "test_system": "H-ras^v12", "assay": "Western blot of H-ras farnesylation in T24 bladder carcinoma cells", "format": "cell-based, human", "settings": "5 μM", "method": "FIG. 16A is an image of a Western blot depicting changes in farnesylation of H-ras^v12 following treatment of human bladder carcinoma cells with FTI-277. T24 bladder carcinoma cells were treated with 5 μM of FTI-277 for the times indicated (hours). Samples were harvested and cell lysates were prepared for Western blot analysis using anti-H-ras antibody. Untreated control samples harvested at 0 and 30 hours are shown for comparison.\nCells were lysed in culture dishes with 1 x reducing Laemmli sample buffer. Samples were boiled, sheared and clarified by centrifugation at 14,000 rpm in a microfuge before storage at −20° C. Samples containing equal amounts of protein were separated on a 12% SDS polyacrylamide gel and electrophoretically transferred to nitrocellulose membranes. Membranes were blocked for 1-2 hours in PBS containing 0.1% Tween-20 and 5% powdered milk before antibody addition. Membranes were probed with monoclonal pan-ras antibody AB-4 (Oncogene Science, Uniondale, N.Y.) at a concentration of 0.5 μg/ml, or with monoclonal H-ras antibody LA069 (1:5000 dilution; Quality Biotech, Camden, N.J.). Detection of protein was accomplished using the ECL chemiluminescence kit (Amersham, Arlington Heights, Ill.). Images were digitized using an Arcus II scanner, and figures were assembled using Adobe Photoshop 3.0."}
{"smiles": "COC(=O)[C@H](CCSC)NC(=O)c1ccc(NC[C@@H](N)CS)cc1-c1ccccc1", "note": "[FTI-277]", "values": [{"measurement": "time after which unfarnesylated H-ras was detectable", "value": 5, "unit": "h"}, {"measurement": "time required to achieve 50% of ras in the unfarnesylated form", "value": 24, "unit": "h"}]}
